For 1 compound, Hill coefficient, inhibition and IC50 results are on record in publication PMC12549899 (Nature Communications, 2025).

For the test, the target named is T1, DrOTOP1 E384A (Danio rerio, UniProt Q7ZWK8, E384A).
T1 construct: A previously generated codon-optimized full-length DrOTOP1[8]; (UniProt: Q7ZWK8) construct; expressed in transfected cells; host or cells: HEK-293 (CRL-1573, ATCC)
T1 sequence (Q7ZWK8 1-586 E384A): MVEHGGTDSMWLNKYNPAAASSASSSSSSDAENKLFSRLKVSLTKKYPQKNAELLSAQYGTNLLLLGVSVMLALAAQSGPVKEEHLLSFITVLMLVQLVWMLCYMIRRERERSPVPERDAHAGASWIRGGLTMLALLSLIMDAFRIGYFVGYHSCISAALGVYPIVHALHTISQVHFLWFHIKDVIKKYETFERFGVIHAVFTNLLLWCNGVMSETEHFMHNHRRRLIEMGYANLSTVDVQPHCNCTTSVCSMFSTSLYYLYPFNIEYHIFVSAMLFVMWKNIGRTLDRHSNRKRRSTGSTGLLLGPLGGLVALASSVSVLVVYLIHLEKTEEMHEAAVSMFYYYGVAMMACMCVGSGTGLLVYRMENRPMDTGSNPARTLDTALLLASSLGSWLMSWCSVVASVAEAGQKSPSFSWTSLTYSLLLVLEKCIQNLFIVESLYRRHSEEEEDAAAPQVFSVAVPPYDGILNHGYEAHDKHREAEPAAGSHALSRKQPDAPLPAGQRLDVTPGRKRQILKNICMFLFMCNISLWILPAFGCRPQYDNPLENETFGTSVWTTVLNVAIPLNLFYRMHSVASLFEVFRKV
Description: Whole-cell patch-clamp, inhibition of acid-evoked currents, DrOTOP1 E384A (central site). Type of test: cell-based, zebrafish (Danio rerio). The text has this:
To functionally test the significance of the two binding sites identified by cryo-EM, we generated point mutations of DrOTOP1 using the binding poses and conformational changes observed in DrOTOP1_C2.2 to guide our mutations. As per the binding pose that best fits our cryo-EM density, C2.2 forms the following interactions in the outer site: hydrophobic packing against many non-polar residues W126, G130, M133, L134, F271, F570, and M573, and π-stacking with W532 (Fig. 5A). In addition, C2.2 could potentially form H-bonds with E267, if the sidechain is protonated or a water bridge is present, and with H574 if it moves closer (Fig. 5A). Likewise, C2.36 presents a heterocyclic nitrogen that can potentially form a H-bond with E267, similarly, provided a protonation or water bridge is present (Fig. 5B). In addition, C2.36 forms a T-shaped π-stacking interaction with H574, whose sidechain has rotated 90 degrees (compared to DrOTOP1_apo), presumably to accommodate the interaction (Fig. 5B). Considering other inhibitors discovered from the second round of screening, many contain functional groups like the carbonyl groups of Group 1 molecules and the heterocyclic nitrogen atoms of Group 2 molecules (Supplementary Fig. 3E), that can potentially form similar H-bonds with E267 as C2.2 and C2.36, assuming the binding modes are similar. In the central site, C2.2 binds with the following interactions: hydrophobic packing with residues V201, F271, A274, V278, and A388, π-stacking with F277, and H-bonding with E384 (Fig. 5C).
We next tested mutations of the central site (L205W, A274W, F277A, E384A L385W, A388W). V201W and S389W, two additional central site mutations, were excluded from the study due to complete loss of channel activity. Mutation of E384 to alanine is expected to disrupt potential hydrogen bonding with C2.2. Of note, E384 is one of the few charged residues in the central pocket and could form a salt bridge with K281, that could also be affected by the mutation. Additionally, in our DrOTOP1_C2.2 structure, we observed that F277 underwent a substantial rearrangement, likely to avoid steric clash and accommodate C2.2 binding. Thus, we introduced the F277A mutation to test if removing this steric clash would enhance C2.2 inhibition.
HEK-293 cells (CRL-1573, ATCC) were cultured in DMEM (Thermofisher 11995073) containing 10% fetal bovine serum (Life Technology 16000044) and Penicillin-Streptomycin (100 I.U./mL) and (100 µg/mL), respectively. Cells were transfected with WT DrOTOP1 or mutant DrOTOP1 channels in 35 mm petri dishes, with ~ 500 ng DNA and 2 μL TransIT-LT1 transfection reagent (Mirus Bio Corporation, Cat # MIR2300) following the manufacturer’s protocol. All constructs were subcloned into a pcDNA3.1 vector that adds an N-terminal fusion tag consisting of an octahistidine tag followed by eGFP, a Gly-Thr-Gly-Thr linker and a 3C protease cleavage site ([…]) followed by WT DrOTOP1, WT mOTOP1, WT hOTOP1, or mutated DrOTOP1. Point mutations were generated via In-Fusion Cloning (Takara) using single-stranded DNA primers generated through IDT and sequence confirmed by Sanger sequencing (GeneWiz).
Whole-cell patch-clamp recording was performed as previously described[6],[22],[25]. Recordings were made with an Axopatch 200B amplifier, digitized with a Digidata 1322a 16-bit data acquisition system, acquired with pClamp 8.2 and analyzed with Clampfit 10 (Molecular Devices). Recordings were sampled at 5 kHz and filtered at 1 kHz. Patch Pipettes with resistance of […] were fabricated from borosilicate glass, and only recordings with a giga-Ohm seal were used in analysis. Membrane potential was held at −80 mV for the duration of recordings. At the beginning of recordings and between, cells were washed with Tyrode’s solution (see below). […]
(The patch-clamp technique gives a direct electrical read-out from membranes.)

Take `C=C(C)COc1ccccc1NC(=O)c1nc[nH]c1C` [C2.2]: the Hill coefficient (as a rule, the slope factor of the fitted curve) turned out to be 1.184. For the setting “3 µM, single cells”, the inhibition (usually the drop in the measured response relative to a control, in per cent) at 3 µM came out at 10.2%. For the same compound, for the setting “10 µM, single cells or mean”, the inhibition at 10 µM is ~40%. The inhibition at 30 µM (30 µM, single cells) was found to be 70.7%. In addition, testing at 100 µM (100 µM, single cells) gave an inhibition of 96.3%. Where the note is “300 µM, single cells”, this compound yielded an inhibition at 300 µM of 97.3%. Moreover, the IC50 (usually the concentration that inhibits the measured activity by half) (pH 5.5) stood at 15.3 µM.
